Active and inactive are the calls of the source. No cut-off for these calls is given here.
Columns and labels:
[1] = Downregulation of CCNF gene expression in human MIA PaCa-2 cells assessed as fold change in CCNF expression at 1 uM incubated for 24 hrs by Bru-seq analysis relative to control; type: functional
MIA PaCa-2 [2] = experiment: Induction of apoptosis in human MIA PaCa-2 cells assessed as late apoptotic cells at 0.1 uM incubated for 48 hrs by Annexin V-FITC/PI staining based flow cytometry analysis (reference value: 0.8%); type: functional
PANC-1 = experiment: Inhibition of colony formation in human PANC-1 cells at 1 uM incubated for 10 to 14 days by crystal violet staining based assay; type: functional, cell-based; details: time 10-14 day
[3] = Upregulation of TRIB3 gene expression in human MIA PaCa-2 cells assessed as fold change in TRIB3 expression at 1 uM incubated for 24 hrs by Bru-seq analysis relative to control; type: functional
[4] = Upregulation of SAT1 gene expression in human MIA PaCa-2 cells assessed as fold change in SAT1 expression at 1 uM incubated for 24 hrs by Bru-seq analysis relative to control; type: functional
[5] = Downregulation of FASN gene expression in human MIA PaCa-2 cells assessed as fold change in FASN expression at 1 uM incubated for 24 hrs by Bru-seq analysis relative to control; type: functional
MIA PaCa-2 [6] = experiment: Induction of autophagy in human MIA PaCa-2 cells assessed as accumulation of LC3B marker gene expression at upto 2 uM incubated for 72 hrs by Western blot analysis; type: functional, cell-based
[7] = Toxicity in NOD/SCID mouse xenografted with human MIA PaCa- 2 cells assessed as morphological changes in heart at 10 to 20 mg/kg, ip administered five times a week for 44 days by H and E staining based inverted microscopic analysis; type: organism-based; details: in vivo, 1056 h, dose 10-20 mg/kg, time 44 day
HepG2 = experiment: Antiproliferative activity against human HepG2 cells assessed as inhibition of cell growth incubated for 72 hrs by MTT assay; type: functional, cell-based; details: HepG2, 72 h
MIA PaCa-2 [8] = experiment: Upregulation of GDF15 gene expression in human MIA PaCa-2 cells incubated for 72 hrs by Western blot analysis; type: functional, cell-based; details: dose <= 600.0 µM, DDE = dose-dependent effect
SNU-449 = experiment: Antiproliferative activity against human SNU-449 cells assessed as inhibition of cell growth incubated for 72 hrs by MTT assay; type: functional, cell-based; details: SNU-449, 72 h
[9] = Downregulation of P1F1 gene expression in human MIA PaCa-2 cells assessed as fold change in P1F1 expression at 1 uM incubated for 24 hrs by Bru-seq analysis relative to control; type: functional
MIA PaCa-2 [10] = experiment: Induction of apoptosis in human MIA PaCa-2 cells assessed as necrotic cells at 0.5 uM incubated for 24 hrs by Annexin V-FITC/PI staining based flow cytometry analysis (reference value: 2.7%); type: functional
MIA PaCa-2 [11] = experiment: Additive autophagy activity in human MIA PaCa-2 cells assessed as inhibition of colony formation at 0.001 to 0.1 uM incubated for 7 days in presence of autophagy inhibitor chloroquine by crystal violet staining based assay; type: functional, cell-based; details: dose 0.001-0.1 µM, time 7.0 day
SNU-398 = experiment: Antiproliferative activity against human SNU-398 cells assessed as inhibition of cell growth incubated for 72 hrs by MTT assay; type: functional, cell-based; details: SNU-398, 72 h
[12] = Downregulation of CXXC5 gene expression in human MIA PaCa-2 cells assessed as fold change in CXXC5 expression at 1 uM incubated for 24 hrs by Bru-seq analysis relative to control; type: functional
MIA PaCa-2 [13] = experiment: Induction of cell cycle arrest in human MIA PaCa-2 cells assessed as accumulation of cells in G2/M phase at 0.5 uM incubated for 24 hrs by RNase/propidium iodide staining based flow cytometry analysis (reference value: 8.11%); type: functional
MIA PaCa-2 [14] = experiment: Induction of apoptosis in human MIA PaCa-2 cells assessed as necrotic cells at 0.1 uM incubated for 48 hrs by Annexin V-FITC/PI staining based flow cytometry analysis (reference value: 1.07%); type: functional
MIA PaCa-2 [15] = experiment: Upregulation of CHOP gene expression in human MIA PaCa-2 cells incubated for 72 hrs by Western blot analysis; type: functional, cell-based; details: dose <= 600.0 µM, DDE = dose-dependent effect
OVCAR-8 = experiment: Antiproliferative activity against human OVCAR-8 cells assessed as inhibition of cell growth incubated for 72 hrs by MTT assay; type: functional, cell-based; details: OVCAR-8, 72 h
BXPC-3 = experiment: Inhibition of colony formation in human BXPC-3 cells at 1 uM incubated for 10 to 14 days by crystal violet staining based assay; type: functional, cell-based; details: time 10-14 day
[16] = Upregulation of FAM129A gene expression in human MIA PaCa-2 cells assessed as fold change in FAM129A expression at 1 uM incubated for 24 hrs by Bru-seq analysis relative to control; type: functional
[17] = Cytotoxicity against human HPDE cells assessed as inhibition of cell growth incubated for 72 hrs by MTT assay; type: toxicity, cell-based
SNU-475 = experiment: Antiproliferative activity against human SNU-475 cells assessed as inhibition of cell growth incubated for 72 hrs by MTT assay; type: functional, cell-based; details: SNU-475, 72 h
MIA PaCa-2 [18] = experiment: Induction of cell cycle arrest in human MIA PaCa-2 cells assessed as accumulation of cells in G2/M phase at 0.5 uM incubated for 48 hrs by RNase/propidium iodide staining based flow cytometry analysis (reference value: 2.71%); type: functional
MIA PaCa-2 [19] = experiment: Induction of apoptosis in human MIA PaCa-2 cells assessed as late apoptotic cells at 0.5 uM incubated for 48 hrs by Annexin V-FITC/PI staining based flow cytometry analysis (reference value: 0.8%); type: functional
[20] = Upregulation of HMOX1 gene expression in human MIA PaCa-2 cells assessed as fold change in HMOX1 expression at 1 uM incubated for 24 hrs by Bru-seq analysis relative to control; type: functional
MIA PaCa-2 [21] = experiment: Induction of apoptosis in human MIA PaCa-2 cells assessed as live cells at 0.5 uM incubated for 24 hrs by Annexin V-FITC/PI staining based flow cytometry analysis (reference value: 90.2%); type: functional
MIA PaCa-2 [22] = experiment: Induction of apoptosis in human MIA PaCa-2 cells assessed as necrotic cells at 0.5 uM incubated for 48 hrs by Annexin V-FITC/PI staining based flow cytometry analysis (reference value: 1.07%); type: functional
[23] = Downregulation of ANKDDIA gene expression in human MIA PaCa-2 cells assessed as fold change in ANKDDIA expression at 1 uM incubated for 24 hrs by Bru-seq analysis relative to control; type: functional
[24] = Downregulation of TNFAIP8LI gene expression in human MIA PaCa-2 cells assessed as fold change in TNFAIP8LI expression at 1 uM incubated for 24 hrs by Bru-seq analysis relative to control; type: functional
[25] = Toxicity in NOD/SCID mouse xenografted with human MIA PaCa-2 cells assessed as weakness at 10 to 20 mg/kg, ip administered five times a week for 44 days; type: organism-based; details: in vivo, 1056 h, dose 10-20 mg/kg, time 44 day
[26] = Toxicity in NOD/SCID mouse xenografted with human MIA PaCa- 2 cells assessed as morphological changes in pancreas at 10 to 20 mg/kg, ip administered five times a week for 44 days by H and E staining based inverted microscopic analysis; type: organism-based; details: in vivo, 1056 h, dose 10-20 mg/kg, time 44 day

## O=C(Nc1cccc2cccnc12)c1cnccn1
[1]
  fold change (FC): 0.36
MIA PaCa-2 [2]
  Activity: 1.5%
PANC-1
  inhibition: Active
[3]
  fold change (FC): 14.5
[4]
  fold change (FC): 7
[5]
  fold change (FC): 0.41
MIA PaCa-2 [6]
  Activity: Active
[7]
  Activity: Non-Toxic
HepG2
  IC50: 500 nM
MIA PaCa-2 [8]
  Activity: Dde
SNU-449
  IC50: 400 nM
[9]
  fold change (FC): 0.28
MIA PaCa-2 [10]
  Activity: 1.4%
MIA PaCa-2 [11]
  Activity: Active
SNU-398
  IC50: 1900 nM
[12]
  fold change (FC): 0.4
MIA PaCa-2 [13]
  Activity: 10.5%
MIA PaCa-2 [14]
  Activity: 1.1%
MIA PaCa-2 [15]
  Activity: Dde
OVCAR-8
  IC50: 300 nM
BXPC-3
  inhibition: Active
[16]
  fold change (FC): 16.8
[17]
  IC50 at 72 h: 550 nM
SNU-475
  IC50: 2670 nM
MIA PaCa-2 [18]
  Activity: 11.5%
MIA PaCa-2 [19]
  Activity: 1.8%
[20]
  fold change (FC): 13
MIA PaCa-2 [21]
  Activity: 86.2%
MIA PaCa-2 [22]
  Activity: 1.2%
[23]
  fold change (FC): 0.45
[24]
  fold change (FC): 0.32
[25]
  Activity: Non-Toxic
[26]
  Activity: Non-Toxic

Source: ChEMBL document CHEMBL5154879, “Induction of Genes Implicated in Stress Response and Autophagy by a Novel Quinolin-8-yl-nicotinamide QN523 in Pancreatic Cancer” (J Med Chem, 2022)
